Tested on: multidrug-resistant Dd2 P. falciparum parasites
Test: growth inhibition assay
Type: cell-based
Details: Plasmodium falciparum, DD2, 72 h, read-out: Dd2 GI50, Dd2 intraerythrocytic parasites, 72 h, DAPI

| SMILES | GI50 [nM] |
| --- | --- |
| C[C@@H]1CN([C@@H](C)CO)C(=O)c2cc(NC(=O)Nc3ccccc3)ccc2O[C@@H](C)CCCCO[C@H]1CN(C)C(=O)OC(C)(C)C [Compound 17] | > 1400 |
| C[C@@H]1CN(CCO)C(=O)c2cc(NC(=O)Nc3ccccc3)ccc2O[C@@H](C)CCCCO[C@H]1CN(C)S(=O)(=O)c1ccc(F)cc1 [Compound 30] | 630 |

Source: publication PMC3276110 (ACS Medicinal Chemistry Letters, 2011)
